The first assay relates to Brassica napus. The experiment in a line: Drought stress in vivo analysis Part B, appearance vs stressed control plants in categories. Also on record: key: 0: no positive effect; +: slight positive effect; ++: clear positive effect; +++: strong positive effect. The following applies: spray 25 g/ha. How it is done: (§1) Seeds of monocotyledonous and dicotyledonous crop plants were sown in sandy loam in plastic pots, covered with soil or sand and cultivated in a greenhouse under good growth conditions. The test plants are treated at the early leaf stage (BBCH10-BBCH13). To assure uniform water supply before commencement of stress, the potted plants were supplied with water by dam irrigation prior to substance application. The inventive compounds were first formulated as wettable powders (WP) or dissolved in a solvent mixture. The further dilution was effected with water supplemented with 0.2% wetting agent (e.g. agrotin). The finished spray liquor was sprayed onto the green parts of the plant at an equivalent water application rate of 600 I/ha. Substance application was followed immediately by stress treatment of the plants. Drought Stress was Induced by Gradual Drying Out Under the Following Conditions: “Day”: 14 hours with illumination at […]-30° C. “Night”: 10 hours without illumination at 18-20° C. The duration of the respective stress phases was guided mainly by the condition of the stressed control plants. It was ended (by re-irrigating and transfer to a greenhouse with good growth conditions) as soon as irreversible damage was observed on the stressed control plants. The end of the stress phase was followed by an about 4-7-day recovery phase, during which the plants were once again kept under good growth conditions in a greenhouse. The duration of the recovery phase was guided mainly by when the trial plants had attained a state which enabled visual scoring of potential effects, and was therefore variable. Once this juncture had been reached, the appearance of the plants treated with test substances was recorded in comparison to the stressed control plants by the following categories: [table] In order to rule out any influence on the effects observed by any fungicidal or insecticidal action of the test compounds, it was additionally ensured that the tests proceeded without fungal infection or insect infestation. The values reported in tables B-1 and […] below are mean values of the results from at least three repeats. Effects of selected compounds of the general formula (I) under drought stress according to the following tables B-1 and B-2: BRSNS=Brassica napus ZEAMX=Zea mays TRZAS=Triticum aestivum
With `CN(C)N(Cc1cccc(Cl)c1Cl)C(=O)c1sc(Cl)nc1Cl` [Compound D6-4], the “Effect (BRSNS)” value is “+”.
As for `CN(C)N(Cc1ccccc1F)C(=O)c1ccns1` [Compound G8-11], the “Effect (BRSNS)” value was “+”.
As to `CN(C)N(Cc1ccccn1)C(=O)c1cnsn1` [Compound H1-21], the “Effect (BRSNS)” value is recorded as “+”.
Take `Cc1nc(-c2cccnc2)sc1C(=O)N(Cc1ccccn1)N1CCCC1` [Compound D2-21]: the “Effect (BRSNS)” value is “+”.
For `CN(C)N(Cc1ccccc1Cl)C(=O)c1sc(Cl)nc1Cl` [Compound D6-1], the “Effect (BRSNS)” value is “+”.
As for `CN(C)N(Cc1cccc(Cl)c1)C(=O)c1snc(N)c1Cl` [Compound G1-2], the “Effect (BRSNS)” value is reported as “+”.

Still in this assay, the particulars now being: spray 250 g/ha.
As to `CC(C)c1nnsc1C(=O)N(Cc1ccccc1C#N)N(C)C` [Compound F2-61, 4-Isopropyl-N′,N′-dimethyl-N-(2-cyanobenzyl)-1,2,3-thiadiazole-5-carbohydrazide], the “Effect (BRSNS)” value was “+”.
Turning to `Cc1c(OCc2ccccc2)nsc1C(=O)N(Cc1ccc(Cl)nc1)N(C)C` [Compound G11-94], the “Effect (BRSNS)” value is reported as “+”.
Same read-out and setting: to `CN(C)N(Cc1nccc(Cl)c1Cl)C(=O)c1ccsc1C(F)F` [Compound B3-40] belongs “+”; to `CN(C)N(Cc1cccc(Cl)c1Cl)C(=O)c1cc(OCc2ccccc2)ns1` [Compound G10-4], “+”; to `CCN(CC)N(Cc1ccccc1C#N)C(=O)c1snc(Cl)c1Cl` [Compound E2-61], “+”.
For `CC(C)c1nnsc1C(=O)N(Cc1cccc(Cl)c1Cl)N(C)C` [Compound F2-4], the “Effect (BRSNS)” value is “+”.
As for `Cc1nnsc1C(=O)N(Cc1ccc(Cl)nc1)N(C)C` [Compound F1-94], the “Effect (BRSNS)” value is “+”.
The same measure, in the same setting: to `Cn1cc(C(=O)N(Cc2ccccc2Cl)N2CCCC2)c(C(F)F)n1` [Compound A20-1] belongs “+”; to `CN(C(=O)OC(C)(C)C)N(Cc1ccccc1Cl)C(=O)c1c(C(F)F)nn(C)c1F` [Compound A13-1], “++”.
Regarding `O=C(c1cnsn1)N(Cc1ncc(C(F)(F)F)cc1Cl)N1CCCC1` [Compound H2-36], the “Effect (BRSNS)” value is listed as “++”.
`CN(C)N(Cc1cccc(Cl)c1Cl)C(=O)c1snc(Cl)c1Cl` [Compound E1-4]: the “Effect (BRSNS)” value was “+”.
In the case of `CC(C)c1nnsc1C(=O)N(Cc1nccc(Cl)c1Cl)N(C)C` [Compound F2-40], the “Effect (BRSNS)” value is given as “+”.

The subject of a further assay is Triticum aestivum. Described as above. Further details: key: 0: no positive effect; +: slight positive effect; ++: clear positive effect; +++: strong positive effect. The following applies: spray 25 g/ha. How it is done:
as §1
For the molecule `CN(C)N(Cc1ccccn1)C(=O)c1ccsc1C(F)F` [Compound B3-21], the “Effect (TRZAS)” value was “+”.
Regarding `N#Cc1ccccc1CN(C(=O)c1snc(Cl)c1Cl)N1CCCC1` [Compound E5-61], the “Effect (TRZAS)” value is reported as “+”.
On to `CN(C(=O)OC(C)(C)C)N(CCc1ccc(Cl)cc1Cl)C(=O)c1c(C(F)F)nn(C)c1Cl` [Compound A14-615], for which the “Effect (TRZAS)” value is reported as “+”.
Turning to `CN(C)N(Cc1ccc(Cl)nc1)C(=O)c1snc(Cl)c1Cl` [Compound E1-94], the “Effect (TRZAS)” value is on record as “+”.
`CN(C(=O)OC(C)(C)C)N(Cc1ccc(Cl)cc1Cl)C(=O)c1c(C(F)F)nn(C)c1F` [Compound A13-5]: the “Effect (TRZAS)” value was “+”.
Still for that read-out and setting: to `Cc1nc(-c2cccnc2)sc1C(=O)N(Cc1ccccc1C#N)N1CCCC1` [Compound D2-61] belongs “+”; to `Cc1nc(-c2cccnc2)sc1C(=O)N(Cc1ccccc1C#N)N(C)C` [Compound D1-61], “+”; to `CN(C)N(Cc1cccc(Cl)c1Cl)C(=O)c1sc(Cl)nc1Cl` [Compound D6-4], “+”.
For the molecule `CC(Cc1ccccc1)N(C(=O)c1snc(Cl)c1Cl)N(C)C` (centres unmarked) [Compound E1-351], the “Effect (TRZAS)” value is recorded as “+”.
Consider `CCc1sccc1C(=O)N(Cc1ccccn1)N(C)C` [Compound B4-21], for which the “Effect (TRZAS)” value is “+”.
For `CN(C)N(Cc1ccccc1Cl)C(=O)c1snc(N)c1Cl` [Compound G1-1], the “Effect (TRZAS)” value is on record as “+”.
For the molecule `CCc1sccc1C(=O)N(Cc1ccccc1Cl)N(C)C` [Compound B4-1], the “Effect (TRZAS)” value was “+”.
Consider `CC(C)c1nnsc1C(=O)N(Cc1ccc(Cl)nc1)N(C)C` [Compound F2-94], for which the “Effect (TRZAS)” value is reported as “+”.
Regarding `CN(C(=O)OC(C)(C)C)N(Cc1ccccc1Cl)C(=O)c1c(C(F)F)nn(C)c1Cl` [Compound A14-1], the “Effect (TRZAS)” value was “+”.
With `CN(C)N(Cc1cccc(Cl)c1Cl)C(=O)c1cn(C)nc1C(F)(F)F` [Compound A4-4, N-(2,3-dichlorobenzyl)-N′,N′, 1-trimethyl-3-(trifluoromethyl)-1H-pyrazole-4-carbohydrazide], the “Effect (TRZAS)” value was “+”.
For `CN(C)N(Cc1ccccc1Cl)C(=O)c1cn(C)nc1C(F)F` [Compound A8-1], the “Effect (TRZAS)” value is “+”.
For the molecule `CN(C)N(Cc1ccccc1C#N)C(=O)c1cn(C)nc1C(F)(F)F` [Compound A4-61], the “Effect (TRZAS)” value was “+”.
With `CCc1sccc1C(=O)N(Cc1ccccc1C#N)N(C)C` [Compound B4-61], the “Effect (TRZAS)” value is reported as “+”.
For the molecule `Cn1nc(C(F)F)c(C(=O)N(Cc2ccccc2C#N)N2CCCC2)c1Cl` [Compound A18-61], the “Effect (TRZAS)” value was “+”.
Still for that read-out and setting: to `O=C(c1cnsn1)N(Cc1ccc(F)cc1F)N1CCCC1` [Compound H2-15] belongs “++”; to `CN(C)N(Cc1ccccn1)C(=O)c1cc(OCc2ccccc2)ns1` [Compound G10-21], “+”.

The same assay, now with this note: spray 250 g/ha.
For `CC(C)c1nnsc1C(=O)N(Cc1ccccc1C#N)N(C)C` [Compound F2-61, 4-Isopropyl-N′,N′-dimethyl-N-(2-cyanobenzyl)-1,2,3-thiadiazole-5-carbohydrazide], the “Effect (TRZAS)” value is given as “+”.
Take `Cc1nnsc1C(=O)N(Cc1ccccc1C#N)N(C)C` [Compound F1-61]: the “Effect (TRZAS)” value is on record as “+”.
As for `CN(C)N(Cc1ccc(Cl)nc1)C(=O)c1sc(Cl)nc1Cl` [Compound D6-94], the “Effect (TRZAS)” value was “+”.
In the case of `Cc1c(OCc2ccccc2)nsc1C(=O)N(Cc1ccc(Cl)nc1)N(C)C` [Compound G11-94], the “Effect (TRZAS)” value is “+”.
As to `O=C(c1ccns1)N(Cc1ccc(F)cc1F)N1CCCC1` [Compound G9-15], the “Effect (TRZAS)” value is “+”.
As to `CN(C)N(Cc1ccccc1Cl)C(=O)c1snc(Cl)c1Cl` [Compound E1-1], the “Effect (TRZAS)” value was “+”.
`CN(C)N(Cc1ccc(Cl)cc1)C(=O)c1snc(Cl)c1Cl` [Compound E1-3]: the “Effect (TRZAS)” value was “+”.
Consider `CN(C)N(Cc1ccccc1C#N)C(=O)c1snc(Cl)c1Cl` [Compound E1-61], for which the “Effect (TRZAS)” value is given as “+”.
`CN(C)N(Cc1ccccc1F)C(=O)c1cc(OCc2ccccc2)ns1` [Compound G10-11]: the “Effect (TRZAS)” value is “+”.
As to `CN(C)N(Cc1ncc(C(F)(F)F)cc1Cl)C(=O)c1cc(OCc2ccccc2)ns1` [Compound G10-36], the “Effect (TRZAS)” value was “++”.
On to `N#Cc1ccccc1CN(C(=O)c1cnsn1)N1CCCC1` [Compound H2-61], for which the “Effect (TRZAS)” value is listed as “+”.
For `CN(C)N(Cc1ccccc1C#N)C(=O)c1cc(OCc2ccccc2)ns1` [Compound G10-61], the “Effect (TRZAS)” value was “+”.
In the case of `Cn1cc(C(=O)N(Cc2ccccc2C#N)N2CCCC2)c(C(F)F)n1` [Compound A20-61], the “Effect (TRZAS)” value is given as “+”.
Regarding `CCn1nc(C(F)F)c(C(=O)N(Cc2cccnc2C#N)N2CCCC2)c1F` [Compound A24-679], the “Effect (TRZAS)” value is given as “+”.
`O=C(c1cnsn1)N(Cc1ccccc1Cl)N1CCCC1` [Compound H2-1]: the “Effect (TRZAS)” value is given as “+”.
The same measure, in the same setting: to `O=C(c1ccns1)N(Cc1ccc(Cl)nc1)N1CCCC1` [Compound G9-94] belongs “++”; to `O=C(c1cnsn1)N(Cc1ccc(Cl)cc1)N1CCCC1` [Compound H2-3], “+”; to `CC(C)c1nnsc1C(=O)N(Cc1ccccc1Cl)N(C)C` [Compound F2-1, N-(2-Chlorobenzyl)-4-isopropyl-N′,N′-dimethyl-1,2,3-thiadiazole-5-carbohydrazide], “+”.
For the molecule `Cc1occc1C(=O)N(Cc1ccccc1C#N)N(C)C` [Compound C3-61], the “Effect (TRZAS)” value is “+”.
`CN(C)N(Cc1ccccc1C#N)C(=O)c1ccsc1C(F)F` [Compound B3-61, N-(2-Cyanobenzyl)-2-(difluoromethyl)-N′,N′-dimethylthiophene-3-carbohydrazide]: the “Effect (TRZAS)” value is given as “+”.
In the case of `CN(C)N(Cc1ncc(C(F)(F)F)cc1Cl)C(=O)c1ccns1` [Compound G8-36], the “Effect (TRZAS)” value was “++”.
The same measure, in the same setting: to `CCn1nc(C(F)F)c(C(=O)N(Cc2ccccc2C#N)N(C)C)c1F` [Compound A7-61] belongs “++”.
Turning to `CN(C)N(Cc1ncc(C(F)(F)F)cc1Cl)C(=O)c1sc(Cl)nc1Cl` [Compound D6-36], the “Effect (TRZAS)” value was “+”.
Same read-out and setting: to `Cc1c(OCc2ccccc2)nsc1C(=O)N(Cc1ncc(C(F)(F)F)cc1Cl)N(C)C` [Compound G11-36] belongs “++”; to `CN(C)N(Cc1ccccn1)C(=O)c1sc(Cl)nc1Cl` [Compound D6-21], “+”.
`Cc1nc(-c2cccnc2)sc1C(=O)N(Cc1cccc(Cl)c1Cl)N(C)C` [Compound D1-4]: the “Effect (TRZAS)” value is “+”.
